Several values for one entry are separate records, joined by “and”; a condition that tells them apart may be missing. Equal entries are not always repeated. Entries after “also recorded” stand apart in the source; their conditions may differ. Where two headings read alike, the source gives them in different places.
Assays:
human CYP2A6 [1] = target: T1, human CYP2A6 (Homo sapiens, UniProt P11509); assay: Spectral ligand binding assay; settings: for Kd 2A6 / Kd: ≥ = minimal Kd value; for Spectral shift type 2A6: UV/Vis difference spectra
T1 sequence (P11509 with tags, fused parts or gaps limits assumed): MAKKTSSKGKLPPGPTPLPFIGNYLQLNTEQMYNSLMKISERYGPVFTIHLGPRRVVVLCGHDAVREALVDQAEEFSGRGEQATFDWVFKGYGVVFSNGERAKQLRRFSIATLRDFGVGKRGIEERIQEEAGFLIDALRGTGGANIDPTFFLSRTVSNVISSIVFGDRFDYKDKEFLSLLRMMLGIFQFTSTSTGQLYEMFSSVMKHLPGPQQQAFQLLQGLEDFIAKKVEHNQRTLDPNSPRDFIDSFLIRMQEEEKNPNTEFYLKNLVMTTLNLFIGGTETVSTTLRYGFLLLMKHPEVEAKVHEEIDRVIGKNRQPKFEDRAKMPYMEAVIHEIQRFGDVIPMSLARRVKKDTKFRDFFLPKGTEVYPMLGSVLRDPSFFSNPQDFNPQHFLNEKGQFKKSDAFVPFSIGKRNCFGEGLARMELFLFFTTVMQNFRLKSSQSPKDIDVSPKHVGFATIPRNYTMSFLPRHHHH

human CYP2A13 [2] = target: T2, human CYP2A13 (Homo sapiens, UniProt Q16696); assay: Spectral ligand binding assay; settings: for Spectral shift type 2A13: UV/Vis difference spectra; for Kd: Kd 2A13, spectral titration, ≥ = minimal Kd value
T2 sequence (Q16696 25-494): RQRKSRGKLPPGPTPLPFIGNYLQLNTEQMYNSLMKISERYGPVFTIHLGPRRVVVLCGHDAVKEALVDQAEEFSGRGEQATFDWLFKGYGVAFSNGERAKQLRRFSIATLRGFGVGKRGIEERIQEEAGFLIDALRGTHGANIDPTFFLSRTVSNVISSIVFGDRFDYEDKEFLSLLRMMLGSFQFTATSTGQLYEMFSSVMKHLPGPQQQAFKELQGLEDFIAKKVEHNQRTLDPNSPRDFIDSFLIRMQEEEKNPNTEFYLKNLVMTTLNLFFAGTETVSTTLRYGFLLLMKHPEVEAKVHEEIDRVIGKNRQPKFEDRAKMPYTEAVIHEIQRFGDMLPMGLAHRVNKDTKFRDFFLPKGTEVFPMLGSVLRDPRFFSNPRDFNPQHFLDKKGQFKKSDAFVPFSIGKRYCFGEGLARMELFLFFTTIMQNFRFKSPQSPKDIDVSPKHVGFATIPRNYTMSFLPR

human CYP2A6 [3] = target: T1, human CYP2A6; assay: Coumarin metabolism assay; settings: for α (mixed inhibition) 2A6: mixed model inhibition
CYP2A6 / CYP2A13 [4] = assay: Coumarin metabolism assay; settings: human
human CYP2A13 [5] = target: T3, human CYP2A13 (Homo sapiens, UniProt Q16696); assay: Coumarin metabolism assay; settings: for α (mixed inhibition) 2A13: mixed model inhibition
T3 sequence (Q16696 with tags, fused parts or gaps limits assumed): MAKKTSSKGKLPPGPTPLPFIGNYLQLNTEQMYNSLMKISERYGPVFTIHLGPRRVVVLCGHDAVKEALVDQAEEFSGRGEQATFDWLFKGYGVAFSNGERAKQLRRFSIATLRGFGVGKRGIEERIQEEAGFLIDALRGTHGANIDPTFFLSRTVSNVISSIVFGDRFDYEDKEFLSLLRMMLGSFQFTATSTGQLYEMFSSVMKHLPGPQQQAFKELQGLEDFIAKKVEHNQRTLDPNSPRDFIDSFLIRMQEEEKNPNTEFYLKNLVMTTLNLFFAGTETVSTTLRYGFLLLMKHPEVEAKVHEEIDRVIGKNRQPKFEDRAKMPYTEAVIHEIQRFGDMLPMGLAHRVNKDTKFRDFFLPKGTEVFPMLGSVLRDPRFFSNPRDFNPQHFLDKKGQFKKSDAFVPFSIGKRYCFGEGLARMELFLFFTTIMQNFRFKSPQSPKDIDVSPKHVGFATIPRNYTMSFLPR

CYP2A6 / CYP2A13 [6] = assay: Spectral ligand binding assay; design: species or system human; settings: human
[7] = pH 7.4, probe coumarin (7-hydroxylation), Selectivity Ki (2A6)/ Ki (2A13), ratio of the CYP2A6 value to the CYP2A13 value
[8] = Selectivity Kd (2A6)/ Kd (2A13), ratio of the CYP2A6 value to the CYP2A13 value
[9] = read-out: Kd 2A6, spectral titration
[10] = read-out: Ki 2A6, coumarin substrate
[11] = read-out: Ki 2A13, coumarin substrate

| Molecule | Kd 2A6 (human CYP2A6 [1]; spectral titration) | Spectral shift type 2A13 (human CYP2A13 [2]) | Ki (human CYP2A6 [3]) | selectivity ratio at 10 min (CYP2A6 / CYP2A13 [4]; [7]) | Ki (human CYP2A13 [5]) | Kd (human CYP2A13 [2]) | selectivity ratio at 10 min (CYP2A6 / CYP2A13 [4]; pH 7.4) | Kd (human CYP2A6 [1]; Kd 2A6, spectral titration) | Spectral shift type 2A6 (human CYP2A6 [1]) | selectivity ratio (CYP2A6 / CYP2A13 [6]) | Mode of inhibition 2A6 (human CYP2A6 [3]; coumarin substrate) | α (mixed inhibition) 2A6 (human CYP2A6 [3]; coumarin substrate) | selectivity ratio (CYP2A6 / CYP2A13 [6]; [8]) | Mode of inhibition 2A13 (human CYP2A13 [5]; coumarin substrate) | α (mixed inhibition) 2A13 (human CYP2A13 [5]; coumarin substrate) | Kd (human CYP2A6 [1]; [9]) | Ki (human CYP2A6 [3]; [10]) | Ki (human CYP2A13 [5]; [11]) |
| --- | --- | --- | --- | --- | --- | --- | --- | --- | --- | --- | --- | --- | --- | --- | --- | --- | --- | --- |
| Fc1ccccc1CN1CCOCC1 [Compound 2, 4-(2-fluorobenzyl)morpholine] | no spectral shift; also recorded: No ^** Spectral Shift | I | ≥ 1000 µM | ≥ 2.6 | 379 µM | – | – | – | – | – | – | – | – | – | – | – | – | – |
| Brc1ccccc1CN1CCOCC1 [Compound 4, 4-(2-bromobenzyl)morpholine] | No ^** Spectral Shift | I | ≥ 1000 µM | – | 17.6 ± 3.1 µM | 6.3 µM | ≥ 56.8 | – | – | – | – | – | – | – | – | – | – | – |
| Cc1ccccc1CN1CCOCC1 [Compound 5, 4-(2-methylbenzyl)morpholine] | No ^** Spectral Shift | I | ≥ 1000 µM | ≥ 14.9 | 66.9 µM | 18.5 µM | – | – | – | – | – | – | – | – | – | – | – | – |
| CCc1ccccc1CN1CCOCC1 [Compound 6, 4-(2-ethylbenzyl)morpholine] | – | I | 818 µM | – | 16.9 µM | 4.5 µM | 48.4 | ≥ 575 µM | I | ≥ 128 | mixed inhibition | 13.3 | – | – | – | – | – | – |
| Clc1cccc(Cl)c1CN1CCOCC1 [Compound 8, 4-(2,6-dichlorobenzyl)morpholine] | – | I | 237 µM | 13.7 | 18.1 µM | 1.3 µM | – | ≥ 522 µM | I | – | – | – | > 400 | – | – | – | – | – |
| Clc1cccc(CN2CCOCC2)c1 [Compound 10, 4-(3-chlorobenzyl)morpholine] | – | I | 352 µM | 1.4 | 260 µM | 69.1 ± 30.2 µM | – | ≥ 400 µM | I [drawing 12] II | – | – | – | ≥ 5.8 | – | – | – | – | – |
| Clc1ccc(CN2CCOCC2)cc1 [Compound 11, 4-(4-chlorobenzyl)morpholine] | – | I | 448 µM | 1 | 458 µM | 168 µM and 167 µM | – | ≥ 245 µM | I | – | – | – | ≥ 1.5 | – | – | – | – | – |
| CC1CN(Cc2cccc(Cl)c2Cl)CC(C)O1 (centres unmarked) [Compound 14, 4-(2,3-dichlorobenzyl)-2,6-dimethylmorpholine] | – | I | ≥ 1000 µM | ≥ 2.6 | 646 µM | 37 µM | – | ≥ 462 µM | I | – | – | – | ≥ 12.5 | mixed inhibition | 19.6 | – | – | – |
| c1ccc2c(CN3CCOCC3)cccc2c1 [Compound 15, 4-(naphthalen-1-ylmethyl)morpholine] | Weak Spectral Shift | I | 500 µM | 2.3 | 219 ± 18.7 µM | 41.8 µM and 121 µM | – | – | – | – | mixed inhibition | 3.1 | – | – | – | – | – | – |
| Clc1ccccc1Cn1ccnc1 [Compound 16, 1-(2-chlorobenzyl)-1H-imidazole] | – | – | 2.9 µM | 1 | 2.8 µM | < 0.1 µM | – | 0.1 µM | – | – | purely competitive inhibitors | – | ≥ 1 | mixed inhibition; also recorded: mixed inhibitors | 3.9 | – | – | – |
| Clc1cccc(Cl)c1Cn1ccnc1 [Compound 17, 1-(2,6-dichlorobenzyl)-1H-imidazole] | – | – | 0.9 µM | 0.4 | 2.1 µM | < 0.1 µM | – | 0.9 µM | – | – | purely competitive inhibitors | – | ≥ 9 | mixed inhibition; also recorded: mixed inhibitors | 2.0 | – | – | – |
| c1csc(CN2CCOCC2)c1 [Compound 19, 4-(thiophen-2-ylmethyl)morpholine] | – | I | 270 µM | 2.1 | 131 µM | 30.8 µM | – | ≥ 464 µM | I | – | – | – | ≥ 15.1 | – | – | – | – | – |
| Clc1ccsc1CN1CCOCC1 [Compound 20, 4-((3-chlorothiophen-2-yl)methyl)morpholine] | – | I | 433 µM | 7.9 | 54.7 µM | 10.7 µM | – | ≥ 239 µM | I | – | – | – | ≥ 22.3 | – | – | – | – | – |
| CN1CCN(Cc2ccccc2Cl)CC1 [Compound 21, 1-(2-chlorobenzyl)-4-methylpiperazine] | weak or no spectral shifts; also recorded: Weak Spectral Shift | I | ≥ 1000 µM | – | ≥ 1000 µM | 306 µM | – | – | – | – | – | – | – | – | – | – | – | – |
| CN1CCN(Cc2c(Cl)cccc2Cl)CC1 [Compound 22, 1-(2,6-dichlorobenzyl)-4-methylpiperazine] | weak or no spectral shifts; also recorded: No Spectral Shift | I | ≥ 1000 µM | – | ≥ 1000 µM | ≥ 362 µM | – | – | – | – | – | – | – | – | – | – | – | – |
| Clc1ccccc1CCN1CCOCC1 [Compound 24, 4-(2-chlorophenethyl)morpholine] | – | – | – | – | – | – | – | – | – | – | – | – | – | – | – | ≥ 604 µM | ≥ 1000 µM | 604 µM |
| Benzylmorpholine [Compound 1] | – | – | – | – | – | – | – | – | I [drawing 2] II | – | mixed inhibition | 3.4 | – | – | – | ≥ 300 µM | 675 µM | 477 µM |
